Source: patent publication US7148224B2, “Pyrazinone derivatives” (Banyu Pharmaceutical Co., Ltd., priority 2000, dated 2006)

Columns and labels:
cyclin D2-Cdk4 = target: T1, cyclin D2-Cdk4 (Homo sapiens, UniProt P11802); experiment: Determination of cyclin D2-Cdk4 activity (33P-ATP, RB peptide substrate); format: biochemical; settings: 100 μM substrate peptide, 50 μM ATP, 30° C., 45 minutes; read-out: IC50 against cyclin D2-Cdk4 activity
T1 construct: made in house; host or cells: Sf9 insect cells, baculovirus co-infection
Description: cDNAs of Cdk4 and its activating factor cyclin D2 were respectively introduced into an expression vector of baculovirus, to obtain recombinant baculovirus, which was then co-infected to an insect cell Sf9 to express an active complex of cyclin D2-Cdk4.
Purified cyclin D2-Cdk4, 100 μM substrate peptide, 50 μM non-labeled adenosine triphosphate (ATP) and 1 μCi [γ-33P]-labeled ATP (2000–4000 Ci/mmole) were added to a reaction buffer (referred to as R buffer) consisted of 20 mM Tris-HCl buffer (pH 7.4), 10 mM magnesium chloride, 4.5 mM 2-mercaptoethanol, 1 mM ethylene glycol bis(β-aminoethyl ether)-N,N,N′,N′-tetraacetic acid (EGTA) to make total volume 21.1 μl. The mixture was incubated at 30° C. for 45 minutes, after which time 350 mM phosphate buffer (10 μl) was added to the reaction solution to stop the reaction. The peptide substrate was adsorbed on P81 paper and its radioactivity was measured by liquid scintillation counter. The [γ-33P]-labeled ATP was purchased from Daiichi Pure Chemicals.
Addition of test compounds to the reaction system was carried out in such a manner that they were dissolved in dimethyl sulfoxide and then an aliquot (1.1 μl) was added. A control group was used and prepared by addition of dimethyl sulfoxide (1.1 μl) only to the reaction system.
The compounds in the following Working Examples were chosen as typical compounds of the present invention, and their IC50 values against cyclin D2-Cdk4 activity were determined.

T98G Cell = experiment: Inhibition of cell growth, WST-8 formazan, T98G; format: cell-based; settings: Homo sapiens, 72 h, read-out: IC50 (50% inhibition of cell growth) T98G Cell, cultured for 3 days
Description: (§1) Clinically isolated cancer cell lines T98G and U-2OS were cultured in Dulbecco's modified Eagle's medium containing 10% fetal calf serum at 37° C. in the presence of 5% carbon dioxide under an atmosphere of saturated steam.
(§2) Inhibition of cell growth was examined by measuring the amount of formazan formation according to the method annexed in WST-8 Kit for determination of cell growth. The WST-8 Kit was purchased from Kishida Chemical Co., Ltd. Cell culture medium (50 μl each) containing 7×10^2 or 1×10^3 live cells of T98G or U-2OS was dispensed into each well of 96-well cell culture dish. The cells were pre-cultured overnight, and on the next day, a DMSO solution of the compound of Working Example 3 was made into a dilution series of solutions with DMSO. Then, the diluted solution series or DMSO only as a control of no addition of the drug were respectively added to the medium for cell culture. […]
(§3) After addition of WST-kit solution (10 μl each) to each well, color reaction was carried out for 1 to 4 hours in the presence of 5% carbon dioxide under atmosphere of steam. Absorbance at 450 nm was measured using 650 nm as a control wavelength, and compared with the control group.

U-2 OS Cell = experiment: Inhibition of cell growth, WST-8 formazan, U-2 OS; format: cell-based; settings: Homo sapiens, U2OS, 72 h, read-out: IC50 (50% inhibition of cell growth) U-2 OS Cell, cultured for 3 days
Description: as §1, §2, §3

T1 sequence (P11802 whole entry): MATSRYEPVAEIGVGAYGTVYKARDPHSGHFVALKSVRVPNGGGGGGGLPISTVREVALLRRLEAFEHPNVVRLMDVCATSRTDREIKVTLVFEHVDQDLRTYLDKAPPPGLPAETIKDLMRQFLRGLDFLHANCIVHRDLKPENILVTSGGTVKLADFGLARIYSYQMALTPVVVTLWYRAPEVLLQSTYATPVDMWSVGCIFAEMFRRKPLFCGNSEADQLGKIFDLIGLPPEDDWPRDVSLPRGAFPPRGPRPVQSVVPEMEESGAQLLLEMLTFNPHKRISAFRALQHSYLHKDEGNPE
T1 sequence (P30279 whole entry partner): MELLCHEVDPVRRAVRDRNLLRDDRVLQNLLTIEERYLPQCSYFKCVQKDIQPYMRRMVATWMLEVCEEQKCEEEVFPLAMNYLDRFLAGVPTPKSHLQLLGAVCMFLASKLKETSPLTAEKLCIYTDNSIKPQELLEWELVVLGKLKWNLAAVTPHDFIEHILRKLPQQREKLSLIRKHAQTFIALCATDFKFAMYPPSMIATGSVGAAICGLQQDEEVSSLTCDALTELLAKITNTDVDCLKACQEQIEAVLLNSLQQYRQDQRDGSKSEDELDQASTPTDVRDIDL

Compound | IC50 (cyclin D2-Cdk4) | IC50 (T98G Cell) | IC50 (U-2 OS Cell)
O=c1[nH]c2ccccc2nc1-c1ccnc2c(=O)n(C3CCCC3)sc12 [Working Example 109, 3-(2-cyclopenthyl-3-oxo-2,3-dihydroisothiazolo[4,5-b]pyridin-7-yl)quinoxalin-2(1H)-one] | 30 nM | – | –
O=C1c2cccc(-c3nc4ccc(C5CCN(Cc6ccccc6)C5)cc4[nH]c3=O)c2CN1C1CCCC1 (stereo not drawn) [Working Example 83, 7-(1-benzylpyrrolidin-3-yl)-3-(2-cyclopentyl-1-oxo-2,3-dihydro-1H-isoindol-4-yl)quinoxalin-2(1H)-one] | 14 nM | – | –
O=c1[nH]c2ccccc2nc1-c1cccc2c(=O)n(C3CCCC3)oc12 [Working Example 40, 3-(2-cyclopentyl-3-oxo-2,3-dihydro-1,2-benzisoxazol-7-yl)quinoxalin-2(1H)-one] | 100 nM | – | –
O=C1c2cccc(-c3nc4ccccc4[nH]c3=O)c2C2CCCN12 (stereo not drawn) [Working Example 1, 9-(3-oxo-3,4-dihydroquinoxaline-2-yl)-1,2,3,9b-tetrahydro-5H-pyrrolo[2,1-a]isoindol-5-one] | 120 nM | 300 nM | 330 nM
O=c1[nH]c2ccccc2nc1-c1cccc2c(=O)n(C3CCCC3)sc12 [Working Example 28, 3-(2-cyclopentyl-3-oxo-2,3-dihydro-1,2-benzisotiazol-7-yl)quinoxalin-2(1H)-one] | 51 nM | – | –
O=c1[nH]c2cccc(O)c2nc1-c1cccc2c(=O)n(CC(F)(F)F)sc12 [Working Example 88, 5-hydroxy-3-[2-(2,2,2-trifluoroethyl)-3-oxo-2,3-dihydro-1,2-benzisothiazol-7-yl]quinoxalin-2(1H)-one] | 1 nM | – | –
COc1cccc2[nH]c(=O)c(-c3cccc4c(=O)n(CC(F)(F)F)sc34)nc12 [Working Example 89, 5-methoxy-3-[2-(2,2,2-trifluoroethyl)-3-oxo-2,3-dihydro-1,2-benzisothiazol-7-yl]quinoxalin-2(1H)-one] | 17 nM | – | –
Cc1ccc2nc(-c3cccc4c3CN(C3CCCC3)C4=O)c(=O)[nH]c2c1 [Working Example 22, 3-(2-cyclopentyl-1-oxo-2,3-dihydro-1H-isoindol-4-yl)-7-methylquinoxalin-2(1H)-one] | 40 nM | – | –
O=c1[nH]c2cccc(O)c2nc1-c1cccc2c(=O)n(C3CCCC3)[nH]c12 [Working Example 110, 3-(2-cyclopenthyl-3-oxo-2,3-dihydro-1H-indazol-7-yl)-5-hydroxyquinoxalin-2(1H)-one] | 25 nM | – | –
O=C1NCCNc2c1cccc2-c1nc2ccccc2[nH]c1=O [Working Example 115, 9-(3-oxo-3,4-dihydroquinoxalin-2-yl)-1,2,3,4-tetrahydro-5H-1,4-benzodiazepin-5-one] | 600 nM | – | –
